Measurements published in patent US11925644B2, “Crystalline salts of 5-methyl-(6S)-tetrahydrofolic acid and l-leucine ethyl ester” (MERCK PATENT GMBH, priority 2018, dated 2024).

Key:
[1] = cited from earlier work; for aqueous solubility: room temperature
[2] = Hygroscopicity by dynamic water vapor sorption analysis (DVS); assay type: physicochemical; details: 0 to 75% r.h.
Experimental: DVS measurements are typically performed with an SPS11-100n “Sorptions Prüfsystem” from ProUmid (formerly “Projekt Messtechnik”), August-Nagel-Str. 23, 89079 Ulm (Germany).
(§1) DVS measurements were performed as follows: The sample was placed on an aluminum holder on top of a microbalance and allowed to equilibrate at 50% RH before starting the pre-defined humidity program: • (1) two hours kept at 50% constant relative humidity (RH) then • (2) reduced to 0% RH at a rate of 5% per hour • (3) maintained RH at 0% for five hours • (4) raised RH to 75% at a rate of 5% per hour • (5) maintained RH at 75% for five hours • (6) reduced to 0% RH at a rate of 5% per hour • (7) maintained RH at 0% for five hours • (8) raised RH to 75% at a rate of 5% per hour • (9) reduced to 50% RH at a rate of 5% per hour • (10) maintained RH at 50% for about one hour
The results are illustrated in FIG. 2.

Water content (TG-FTIR) = assay type: physicochemical
Experimental: Thermogravimetric measurements were carried out with a Netzsch Thermo-Microbalance TG 209 coupled to a Bruker FTIR Spectrometer Vector 22 (sample pans with a pinhole, N2 atmosphere, heating rate 10 K/min).
About 420 mg of the solid material obtained in Example 2 was weighed into a filter centrifuge device and 2.0 mL of water is added followed by centrifugation under ambient conditions. This wash step is repeated twice more using 0.5 mL of water. The wet filter cake is then transferred to a fritted glass filter and air dried by drawing ambient air (about 22° C./about 21% r.h.) through the glass filter for about 10 minutes.
as §1

[3] = purified/de-ionized water, room temperature, agitated one minute, gravimetric
Experimental: (§2) 2.00 mL of purified/de-ionized water (for instance water for chromatography) was added to the solid using an adjustable volumetric pipette. The mixture was vigorously agitated at room temperature for one minute. […] The solution was filtered by centrifugal filtration and 1.50 mL of the aqueous solution was transferred into a tared glass vial (about 10 mL volume). The water was evaporated in an air dryer at 40° C. for about 15 hours, then at 50° C. for about eight hours, subsequently drying was completed at 50° C. under vacuum (10 to 20 mbar) for about 13 hours. The solubility was determined by gravimetric evaluation of the solid residue.
as §2, with “The suspension” for “The solution”

For `CN1c2c(nc(N)[nH]c2=O)NC[C@@H]1CNc1ccc(C(=O)N[C@@H](CCC(=O)O)C(=O)O)cc1` [5-methyl-(6S)-tetrahydrofolic acid], the “solubility in water” value ([1]; water) is given as “poorly soluble in water”.
For `CN1c2c([nH]c(N)nc2=O)NC[C@@H]1CNc1ccc(C(=O)N[C@@H](CCC(=O)[O-])C(=O)[O-])cc1.[Ca+2]` [calcium salt (Form III), calcium salt of 5-methyl-(6S)-tetrahydrofolic acid], the aqueous solubility [1] is listed as “about 2.5 mg/ml”.
In the case of “5-methyl-(6S)-tetrahydrofolic acid calcium salt”, the “change of water content within tested relative humidity range” value [2] is reported as “about 7.4%”, the water content (Water content (TG-FTIR); method not stated) is reported as 12.4% and the kinetic solubility [3] is reported as 9.0 mg of 5-methyl-(6S)-tetrahydrofolic acid per mL.
For `CN1c2c([nH]c(N)nc2=O)NC[C@@H]1CNc1ccc(C(=O)N[C@@H](CCC(=O)[O-])C(=O)[O-])cc1.[Ca+2]` [Form I, calcium salt of 5-methyl-(6S)-tetrahydrofolic acid], the aqueous solubility [1] is listed as “about 10 mg/ml”.
With `CCOC(=O)[C@@H](N)CC(C)C.CN1c2c([nH]c(N)nc2=O)NC[C@@H]1CNc1ccc(C(=O)N[C@@H](CCC(=O)O)C(=O)O)cc1` [5-methyl-(6S)-tetrahydrofolic acid L-leucine ethyl ester 1:1 salt] the water content (Water content (TG-FTIR); TG-FTIR analysis) was “about 0.7%”.
